Results taken from paper PMC9231160, “Monoterpenoid Glycosides from the Leaves of Ligustrum robustum and Their Bioactivities” (Molecules, 2022).
“Also recorded” adds a separate entry of the source.

Assays:
[1] = ABTS radical scavenging assay; settings: mean ± SD (n = 3)
Procedure: All samples were measured in triplicate. […] Differences of means between groups were analyzed by one-way analysis of variance (ANOVA) on statistical package SPSS 13.0. The differences between groups were believed to be significant when p < 0.05. […]
(§1) S1.4. DPPH radical scavenging assay […]
S1.5. ABTS radical scavenging assay
The ABTS radical scavenging assay was used also to evaluate the antioxidant
The ABTS free radical cation (ABTS•+ ) was
manufactured by reacting ABTS stock solution (7 mM) with potassium persulphate

[2] = DPPH radical scavenging assay; settings: mean ± SD (n = 3), NA = no activity
Procedure: Statistical analyses were carried out on GraphPad Prism 5.01. All samples were measured in triplicate. The IC50 (the final concentration of sample needed to inhibit 50% of enzyme activity or scavenge 50% of free radical) was obtained by plotting the inhibition or scavenging percentage of each sample against its concentration. The results are reported as mean ± standard deviation (SD). Differences of means between groups were analyzed by one-way analysis of variance (ANOVA) on statistical package SPSS 13.0. The differences between groups were believed to be significant when p < 0.05.
(§2) S1.3. Determination of α-amylase inhibitory activity.
Phosphate buffer (20 mM, pH 6.9, containing 6 mM NaCl) was used as the solvent in this assay. Sample solution (50 μL, 50-1500 μM) and starch solution (50 μL, 1%, w/v) were mixed and incubated in a 96-well microplate at 37 °C for 10 min.
Then, α-amylase solution (50 μL, 0.2 U/mL) was added and the mixture was incubated at 37 °C for an additional 10 min. […] When the reaction solution cooled to room temperature, all samples were diluted by adding distilled water (50 μL), and then their absorbance was measured using a microplate reader at 540 nm. All samples had little background absorbance (phosphate buffer instead of starch solution) at 540 nm, thus the inhibitory activity was calculated as (Acontrol - Asample)/Acontrol × 100%, in which Asample was the absorbance of the sample and Acontrol was the absorbance of the phosphate buffer control without test samples. […]
The DPPH radical scavenging assay was used to evaluate the antioxidant activity of compounds 1-11. […] The absorbance of the reaction mixture was measured at 517 nm using a microplate reader. The DPPH scavenging activity was calculated by the following formula: DPPH scavenging activity (%) = (Acontrol - Asample)/Acontrol × 100%, where Acontrol was the absorbance of ethanol control without samples, Asample was the absorbance of sample. […]

α-Glucosidase from yeast = test: α-glucosidase inhibitory activity; assay type: biochemical; settings: for α-Glucosidase Inhibition at 0.1 mM: mean ± SD (n = 3), NA = no activity
Procedure: (§3) All samples were measured in triplicate. […] Differences of means between groups were analyzed by one-way analysis of variance (ANOVA) on statistical package SPSS 13.0. The differences between groups were believed to be significant when p < 0.05.
S1. Determination of bioactivities. […]
S1.2. Determination of α-glucosidase inhibitory activity. […]
diluted with phosphate buffer (0.1 M, pH 6.8). […]
and 4-nitrophenyl α-D-glucopyranoside (pNPG) solution (50 μL, 5 mM) were mixed and incubated in a 96-well microplate at 37 °C for 5 min. α-Glucosidase from yeast (50 μL, 0.2 U/mL) was added and incubated at 37 °C for another 30 min. Finally, 50 μL of Na2CO3 (1M) was added to terminate the reaction. The absorbance of mixture was measured using a microplate reader at a wavelength 405 nm. […]
following equation: α-glucosidase inhibition (%) = (Acontrol - Asample)/Acontrol × 100%, where Acontrol represented the absorbance of phosphate buffer control without test samples, Asample represented the absorbance of test samples. Acarbose was used as the […]

[3] = molecular target: T1, fatty acid synthase (FAS) (Gallus gallus, UniProt P12276); test: FAS inhibitory activity; assay type: biochemical, chicken; settings: for IC50: FAS isolated from chicken liver, mean ± SD (n = 3), NA = no activity; for FAS inhibitory activity (in words): qualitative statement
T1 construct: isolated from chicken liver and kept in ice-bath; from tissue; host or cells: chicken liver
Procedure: as §3
S1. Determination of bioactivities.
S1.1. Determination of FAS inhibitory activity. […]
diluted with potassium phosphate buffer (0.1 M, pH 7.0). Sample solution (100 μL, 20-2000 μM, 37 °C) and FAS substrates (1.8 mL, 37 °C) were mixed in a cuvette, and then FAS solution (100 μL, 37 °C, isolated from chicken liver and kept in ice-bath before use) was added. The absorbance of reaction mixture was monitored by a UV-vis spectrophotometer at 340 nm in 1 min. The inhibitory effect was calculated by the following equation: FAS inhibition (%) = (Acontrol - Asample)/Acontrol × 100%, where Acontrol represented the FAS activity in the control group (phosphate buffer instead of sample solution), Asample represented the FAS activity in the sample groups. The FAS activity was calculated as (A0 - A1)/1 min, in which A0 was the absorbance of the reaction mixture when the FAS was added, and A1 was the absorbance of the reaction mixture after reaction 1 min. Orlistat was used as the positive control.
FAS substrates: 0.1 M potassium phosphate buffer (pH 7.0), 1 mM ethylene-

α-amylase = α-amylase inhibitory activity; assay type: biochemical; settings: for α-Amylase Inhibition at 0.1 mM: mean ± SD (n = 3), NA = no activity
Procedure: as §3, §2
Phosphate buffer (20 mM, pH 6.9, containing 6 mM NaCl) was used as the […]
μL, 1%, w/v) were mixed and incubated in a 96-well microplate at 37 °C for 10 min.
Then, α-amylase solution (50 μL, 0.2 U/mL) was added and the mixture was incubated at 37 °C for an additional 10 min. The reaction was stopped by addition of […]
microplate was immediately heated in 95 °C water bath for 10 min. When the reaction solution cooled to room temperature, all samples were diluted by adding distilled water (50 μL), and then their absorbance was measured using a microplate reader at […]
starch solution) at 540 nm, thus the inhibitory activity was calculated as (Acontrol - Asample)/Acontrol × 100%, in which Asample was the absorbance of the sample and Acontrol was the absorbance of the phosphate buffer control without test samples. Acarbose was used as the positive control.
as §1

[4] = qualitative statement, compared with positive control acarbose

T1 sequence (P12276 whole entry): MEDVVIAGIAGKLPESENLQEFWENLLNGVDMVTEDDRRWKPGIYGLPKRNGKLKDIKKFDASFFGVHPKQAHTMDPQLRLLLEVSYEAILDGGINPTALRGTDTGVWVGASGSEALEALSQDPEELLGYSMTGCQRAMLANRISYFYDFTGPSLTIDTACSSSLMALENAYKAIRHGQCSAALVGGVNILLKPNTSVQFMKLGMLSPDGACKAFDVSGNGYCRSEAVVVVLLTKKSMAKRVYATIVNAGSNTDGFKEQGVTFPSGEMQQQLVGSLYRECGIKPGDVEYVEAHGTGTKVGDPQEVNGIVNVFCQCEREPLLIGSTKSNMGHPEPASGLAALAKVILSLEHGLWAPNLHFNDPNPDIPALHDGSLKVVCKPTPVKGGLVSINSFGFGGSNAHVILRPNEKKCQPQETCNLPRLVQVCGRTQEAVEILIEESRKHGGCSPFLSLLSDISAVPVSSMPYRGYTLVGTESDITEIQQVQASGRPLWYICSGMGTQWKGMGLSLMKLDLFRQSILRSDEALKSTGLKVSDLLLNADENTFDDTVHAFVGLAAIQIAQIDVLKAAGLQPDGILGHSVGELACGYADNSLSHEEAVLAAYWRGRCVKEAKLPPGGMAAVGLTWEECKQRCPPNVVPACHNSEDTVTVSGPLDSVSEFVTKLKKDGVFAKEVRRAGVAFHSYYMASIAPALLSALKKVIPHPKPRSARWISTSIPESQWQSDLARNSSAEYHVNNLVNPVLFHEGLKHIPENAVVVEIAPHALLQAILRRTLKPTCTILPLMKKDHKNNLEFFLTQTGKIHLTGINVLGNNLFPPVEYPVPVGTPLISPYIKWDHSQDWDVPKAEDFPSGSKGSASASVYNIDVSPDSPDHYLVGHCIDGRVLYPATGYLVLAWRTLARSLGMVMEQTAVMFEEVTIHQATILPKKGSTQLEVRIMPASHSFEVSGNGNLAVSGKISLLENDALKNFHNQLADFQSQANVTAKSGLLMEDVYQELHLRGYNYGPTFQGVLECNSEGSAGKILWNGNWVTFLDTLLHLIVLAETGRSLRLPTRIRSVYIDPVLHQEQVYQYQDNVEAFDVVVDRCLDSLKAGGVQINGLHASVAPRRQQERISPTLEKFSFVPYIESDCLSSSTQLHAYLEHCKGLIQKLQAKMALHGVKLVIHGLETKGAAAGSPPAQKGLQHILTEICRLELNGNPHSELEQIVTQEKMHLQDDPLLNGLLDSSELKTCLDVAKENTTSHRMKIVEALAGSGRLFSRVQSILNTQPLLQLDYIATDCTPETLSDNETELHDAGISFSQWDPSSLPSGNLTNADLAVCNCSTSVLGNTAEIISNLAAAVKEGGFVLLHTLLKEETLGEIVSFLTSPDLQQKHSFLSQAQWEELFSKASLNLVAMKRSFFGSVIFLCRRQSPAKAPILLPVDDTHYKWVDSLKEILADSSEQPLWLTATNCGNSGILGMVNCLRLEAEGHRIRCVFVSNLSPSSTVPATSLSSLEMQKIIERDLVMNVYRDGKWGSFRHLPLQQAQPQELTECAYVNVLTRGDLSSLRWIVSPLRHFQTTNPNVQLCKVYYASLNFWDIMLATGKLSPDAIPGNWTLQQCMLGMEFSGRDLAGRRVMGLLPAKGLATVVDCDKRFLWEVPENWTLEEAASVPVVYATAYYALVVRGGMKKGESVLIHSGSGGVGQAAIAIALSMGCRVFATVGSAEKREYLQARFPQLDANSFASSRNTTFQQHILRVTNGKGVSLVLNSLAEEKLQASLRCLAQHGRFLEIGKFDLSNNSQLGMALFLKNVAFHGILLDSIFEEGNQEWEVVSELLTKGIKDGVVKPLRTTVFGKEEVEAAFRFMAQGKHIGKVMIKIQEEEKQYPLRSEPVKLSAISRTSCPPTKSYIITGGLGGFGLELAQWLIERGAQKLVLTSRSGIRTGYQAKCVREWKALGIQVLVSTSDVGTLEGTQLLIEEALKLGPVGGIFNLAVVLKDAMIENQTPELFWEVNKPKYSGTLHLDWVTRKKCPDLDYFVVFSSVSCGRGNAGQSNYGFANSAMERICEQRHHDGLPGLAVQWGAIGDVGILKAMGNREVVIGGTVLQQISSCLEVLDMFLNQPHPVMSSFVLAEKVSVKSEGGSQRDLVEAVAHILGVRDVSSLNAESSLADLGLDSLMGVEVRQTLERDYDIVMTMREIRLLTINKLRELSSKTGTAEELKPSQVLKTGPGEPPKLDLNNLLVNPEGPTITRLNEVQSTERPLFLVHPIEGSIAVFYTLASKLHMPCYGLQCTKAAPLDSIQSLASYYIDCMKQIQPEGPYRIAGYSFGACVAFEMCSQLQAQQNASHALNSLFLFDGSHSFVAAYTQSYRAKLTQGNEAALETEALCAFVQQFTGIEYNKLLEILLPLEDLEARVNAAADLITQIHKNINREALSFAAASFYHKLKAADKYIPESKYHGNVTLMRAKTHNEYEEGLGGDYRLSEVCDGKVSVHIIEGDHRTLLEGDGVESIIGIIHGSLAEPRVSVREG

SMILES	IC50 [1] [µM]	IC50 [2] [µM]	α-Glucosidase Inhibition at 0.1 mM (α-Glucosidase from yeast)	α-glucosidase inhibitory effect (in words) (α-Glucosidase from yeast; [4])	IC50 [3] [µM]	FAS inhibitory activity (in words) [3]	α-Amylase Inhibition at 0.1 mM (α-amylase) [b %]	α-amylase inhibitory effect (in words) (α-amylase; [4])
C=CC(C)(CCC=C(C)C)O[C@@H]1O[C@H](CO)[C@@H](OC(=O)/C=C/c2ccc(O)c(O)c2)[C@H](O[C@@H]2O[C@@H](C)[C@H](O)[C@@H](O)[C@H]2O)[C@H]1O (mixture of isomers) [Compound 1, 3(R)- and 3(S)-linaloyl-(3-O-α-L-rhamnopyranosyl)-(4-O-trans-caffeoyl)-O-β-D-glucopyranoside]	6.91 ± 0.1	19.7 ± 0.23						
C=CC(C)(CCC=C(C)C)O[C@@H]1O[C@H](COC(=O)/C=C/c2ccc(O)cc2)[C@@H](O)[C@H](O[C@@H]2O[C@@H](C)[C@H](O)[C@@H](O)[C@H]2O)[C@H]1O (mixture of isomers) [Compound 2, 3(R)- and 3(S)-linaloyl-(3-O-α-L-rhamnopyranosyl)-(6-O-trans-p-coumaroyl)-O-β-D-glucopyranoside]	9.41 ± 0.22	> 250	48.1 ± 4.3 b %	weaker α-glucosidase inhibitory effect than the positive control acarbose; also recorded: moderate	2.36 ± 0.1	strong FAS inhibitory activity	31.5 ± 0.5	moderate
C=CC(C)(CCC(O)C(=C)C)O[C@@H]1O[C@H](COC(=O)/C=C/c2ccc(O)cc2)[C@@H](O)[C@H](O[C@@H]2O[C@@H](C)[C@H](O)[C@@H](O)[C@H]2O)[C@H]1O (stereo partly drawn) [Compound 3, 3-(3,6-dihydroxy-3,7-dimethyl-octa-1,7-dienyl)-(3-O-α-L-rhamnopyranosyl)-(6-O-trans-p-coumaroyl)-O-β-D-glucopyranoside]	16 ± 0.69		27.3 ± 0.3 c %		21.8 ± 0.38		32.5 ± 6.3	
C=CC(C)(CCC(O)C(C)(C)O)OC1OC(COC(=O)C=Cc2ccc(O)cc2)C(O)C(OC2OC(C)C(O)C(O)C2O)C1O (centres unmarked) [Compound 4]	9.66 ± 0.17				> 100		28.2 ± 3.9	
C=CC(C)(C/C=C/C(C)(C)OC)O[C@@H]1O[C@H](COC(=O)/C=C/c2ccc(O)cc2)[C@@H](O)[C@H](O[C@@H]2O[C@@H](C)[C@H](O)[C@@H](O)[C@H]2O)[C@H]1O (stereo partly drawn) [Compound 5, (5E)-3-(3-hydroxy-7-methoxy-3,7-dimethyl-octa-1,5-dienyl)-(3-O-α-L-rhamnopyranosyl)-(6-O-trans-p-coumaroyl)-O-β-D-glucopyranoside]	6.93 ± 0.01		13.8 ± 2.0 d %		23.7 ± 0.45		35.6 ± 2.0	
C=CC(C)(CCC=C(C)C)O[C@@H]1O[C@H](CO)[C@@H](OC(=O)/C=C/c2ccc(O)cc2)[C@H](O[C@@H]2O[C@@H](C)[C@H](O[C@@H]3O[C@@H](C)[C@H](O)[C@@H](O)[C@H]3O)[C@@H](O)[C@H]2O)[C@H]1O (stereo partly drawn) [Compound 6, linaloyl-[3-O-α-L-rhamnopyranosyl-(1→4)-α-L-rhamnopyranosyl]-(4-O-trans-p-coumaroyl)-O-β-D-glucopyranoside]	11.3 ± 0.16		12.0 ± 1.7 d %		4.78 ± 0.14	strong FAS inhibitory activity	26.1 ± 3.0	
C=CC(C)(CCC=C(C)C)O[C@@H]1O[C@H](CO)[C@@H](OC(=O)/C=C\c2ccc(O)cc2)[C@H](O[C@@H]2O[C@@H](C)[C@H](O[C@@H]3O[C@@H](C)[C@H](O)[C@@H](O)[C@H]3O)[C@@H](O)[C@H]2O)[C@H]1O (stereo partly drawn) [Compound 7, linaloyl-[3-O-α-L-rhamnopyranosyl-(1→4)-α-L-rhamnopyranosyl]-(4-O-cis-p-coumaroyl)-O-β-D-glucopyranoside]	20.2 ± 0.33				> 100			
COC(C)(C)C=CCC(C)=CCOC1OC(COC(=O)C=Cc2ccc(O)cc2)C(O)C(OC2OC(C)C(O)C(O)C2O)C1O (centres unmarked) [Compound 8]	19.5 ± 0.46		24.7 ± 3.5 c %		25.8 ± 0.47		31.4 ± 1.9	
C=C(C)C(O)CCC(C)=CCOC1OC(CO)C(OC(=O)C=Cc2ccc(O)cc2)C(OC2OC(C)C(O)C(O)C2O)C1O (centres unmarked) [Compound 9]	18.7 ± 0.47		12.4 ± 5.6 d %		21.7 ± 0.46		29.2 ± 8.4	
CC(C)=CCC/C(C)=C/CO[C@@H]1O[C@H](CO)[C@@H](OC(=O)/C=C/c2ccc(O)cc2)[C@H](O[C@@H]2O[C@@H](C)[C@H](O)[C@@H](O)[C@H]2O)[C@H]1O [Compound 10, ligurobustoside C]	15.1 ± 0.1		28.7 ± 2.1 c %		4.68 ± 0.16	strong FAS inhibitory activity		
CC(=CCOC1OC(CO)C(OC(=O)C=Cc2ccc(O)cc2)C(OC2OC(C)C(O)C(O)C2O)C1O)CCC(O)C(C)(C)O (centres unmarked) [Compound 11]	7.92 ± 0.23				61.74 ± 0.45		31.3 ± 1.3	
O=C1O[C@H]([C@@H](O)CO)C(O)=C1O [L-(+)-ascorbic acid, reference compound]		13.66 ± 0.13						
